Assay results from publication PMC7560456, “Synthesis, Selected Transformations, and Biological Activity of Alkoxy Analogues of Lepidilines A and C” (Materials, 2020).
Entries after “also recorded” stand apart in the source; their conditions may differ. Counter-ions that a name gives are not always drawn.

Experiments:
MCF-7 cells = assay: MTT in vitro cytotoxicity assay, MCF-7; type: cell-based; details: concentration required to inhibit metabolic activity by 50%, mean ± SEM
Description: (§1) The promyelocytic leukemia HL-60 and breast cancer adenocarcinoma MCF-7 cell lines were purchased from the European Collection of Cell Cultures (ECACC). […] MCF-7 cells were maintained in Minimum Essential Medium Eagle (Sigma Aldrich, St. Louis, MO, USA) supplemented with 2 mM glutamine and MEM nonessential amino-acid solution (Sigma Aldrich, St. Louis, MO, USA). Both media were supplemented with 10% heat-inactivated fetal bovine serum (Biological Industries, Beit-Haemek, Israel) and antibiotics (100 U/mL penicillin and 100 μg/mL streptomycin) (Sigma-Aldrich, St. Louis, MO, USA). Human umbilical vein endothelial cells (HUVECs) and human mammary gland/breast cell line MCF-10A were purchased from the American Type Culture Collection (ATCC). HUVECs were cultured using the EGM-2 Endothelial Medium BulletKit, whereas MCF-10A was cultured using the MEGM Mammary Epithelial BulletKit, both purchased from Lonza (Lonza, Walkersville, MD, USA).
(§2) The MTT (3-(4, 5-dimethylthiazol-2-yl)-2, 5-diphenyltetrazolium bromide) assay was performed according to the known procedure. Cells were seeded into 24-well plates at a density of 8 × 10^4/mL and left to grow for 24 h. After being cultured for 48 h with various concentrations of the tested compounds, cells were incubated with MTT solution (5 mg/mL in phosphate-buffered saline) for 2 h. Then, the plates were centrifuged and the supernatant was discarded. Dimethyl sulfoxide (DMSO; 1 mL) was added to each well to dissolve the blue formazan product, whose absorbance was measured at 560 nm using a FlexStation 3 Multi-Mode Microplate Reader (Molecular Devices, LLC, CA, USA). The untreated cells were used as control. The data were expressed as mean ± SEM of three independent experiments.

HL-60 cells = assay: MTT in vitro cytotoxicity assay, HL-60; type: cell-based; details: concentration required to inhibit metabolic activity by 50%, mean ± SEM
Description: as §1, §2

HUVECs = assay: MTT in vitro cytotoxicity assay, HUVEC (normal cells); type: cell-based, human; details: 48 h, mean ± SEM
Description: as §1, §2

MCF-10A cells = assay: MTT in vitro cytotoxicity assay, MCF-10A (normal cells); type: cell-based, human; details: 48 h, mean ± SEM
Description: as §1, §2

FDIGROV cell line = test system: FDIGROV cell line; parameters: method as in PMID 12932133; details: ovarian carcinoma; cited from earlier work
MDA231 cell line = test system: MDA231 cell line; parameters: method as in PMID 12932133; details: breast carcinoma; cited from earlier work
UMUC3 cell line = test system: UMUC3 cell line; parameters: method as in PMID 12932133; details: bladder carcinoma; cited from earlier work
PACA2 cell line = test system: PACA2 cell line; parameters: method as in PMID 12932133; details: pancreatic adenocarcinoma; cited from earlier work

Which results are given for “1-Adamantyloxy-3-(2-methylbenzyloxy)-4,5-dimethylimidazolium bromide [5i]”?
IC50 (MCF-7 cells; 48 h): 5950 ± 350 nM; IC50 (HL-60 cells; 48 h): 670 ± 10 nM; IC50 (HUVECs): 3960 ± 80 nM

Which IC50 (MCF-7 cells; 48 h) does the source give for “1-Adamantyloxy-3-(3,5-dimethylbenzyloxy)-4,5-dimethylimidazolium bromide [5k]” here?
The IC50 was 2400 ± 60 nM.

And the IC50 (HL-60 cells; 48 h)?
The IC50 was 360 ± 10 nM.

And the IC50 (MCF-10A cells)?
The IC50 was 1360 ± 10 nM.

And the IC50 (HUVECs)?
The IC50 was 1820 ± 80 nM.

Which IC50 (MCF-7 cells; 48 h) does the source give for “1-Adamantyloxy-3-(4-methylbenzyloxy)-4,5-dimethylimidazolium bromide [5j]” here?
Its IC50 is 2630 ± 30 nM.

What about the IC50 (HL-60 cells; 48 h) of the same compound?
Its IC50 is 390 ± 10 nM.

And the IC50 (MCF-10A cells)?
The IC50 was 1690 ± 40 nM.

What about the IC50 (HUVECs) of the same compound?
The IC50 was 1940 ± 10 nM.

For “1-Adamantyloxy-3-benzyloxy-4,5-dimethylimidazolium bromide [5h]”, which IC50 (MCF-7 cells; 48 h) is on record?
The IC50 was 6760 ± 80 nM.

And the IC50 (HL-60 cells; 48 h)?
The IC50 was 880 ± 80 nM.

And the IC50 (MCF-10A cells)?
The IC50 was 6400 ± 30 nM.

And the IC50 (HUVECs)?
The IC50 was 3700 ± 230 nM.

Which melting point does the source give for `Cc1cc(C)cc(CO[n+]2cn(OC34CC5CC(CC(C5)C3)C4)c(C)c2C)c1` (as salt: phosphate) (hydrate or solvate) [6b, 1-Adamantyloxy-3-(3,5-dimethylbenzyloxy)-4,5-dimethylimidazolium hexafluorophosphate] here?
Its melting point is 150 to 152 °C.

For `c1ccc(CO[n+]2cn(Cc3ccccc3)c(-c3ccccc3)c2-c2ccccc2)cc1` (as salt: phosphate) [6a, 1-Benzyl-3-benzyloxy-4,5-diphenylimidazolium hexafluorophosphate], which melting point is on record?
The melting point was 163 to 166 °C.

With `Cc1c(C)[n+]([O-])cn1OCc1ccccc1` [3c, 1-Benzyloxy-4,5-dimethyl-1H-imidazole 3-oxide] as the compound, how does the melting point read?
The melting point was 103 to 105 °C.

With `Cc1ccccc1COn1c[n+]([O-])c(C)c1C` [3d, 1-(2-Methylbenzyloxy)-4,5-dimethyl-1H-imidazole 3-oxide] as the compound, how does the melting point read?
Its melting point is 89 to 91 °C.

Which melting point does the source give for `Cc1ccc(COn2c[n+]([O-])c(C)c2C)cc1` [3e, 1-(4-Methylbenzyloxy)-4,5-dimethyl-1H-imidazole 3-oxide] here?
The melting point was 101 to 102 °C.

For `Cc1cc(C)cc(COn2c[n+]([O-])c(C)c2C)c1` [3f, 1-(3,5-Dimethylbenzyloxy)-4,5-dimethyl-1H-imidazole 3-oxide], which melting point is on record?
The melting point was 96 to 98 °C.

For `Cc1c(C)[n+](OCc2ccccc2)cn1Cc1ccccc1.[Br-]` [4a, 1-Benzyl-3-benzyloxy-4,5-dimethylimidazolium bromide], which melting point is on record?
The melting point was 148 to 150 °C.

Which melting point does the source give for `[Br-].c1ccc(CO[n+]2cn(Cc3ccccc3)c(-c3ccccc3)c2-c2ccccc2)cc1` [4b, 1-Benzyl-3-benzyloxy-4,5-diphenylimidazolium bromide] here?
Its melting point is 167 to 169 °C.

What about the IC50 (MCF-7 cells; 48 h) of the same compound?
The IC50 was 1530 ± 90 nM.

What about the IC50 (HL-60 cells; 48 h) of the same compound?
The IC50 was 700 ± 30 nM.

What about the IC50 (MCF-10A cells; Homo sapiens, MCF-10A) of the same compound?
Its IC50 is 570 ± 10 nM.

And the IC50 (HUVECs; Homo sapiens, HUVEC)?
Its IC50 is 970 ± 30 nM.

Which melting point does the source give for `Cc1[nH]c(C23CC4CC(CC(C4)C2)C3)[n+](OCc2ccccc2)c1C.[Br-]` [4c, 1-Adamantyl-3-benzyloxy-4,5-dimethylimidazolium bromide] here?
The melting point was 196 to 197 °C.

With `[Br-].c1ccc(CO[n+]2c(C34CC5CC(CC(C5)C3)C4)[nH]c(-c3ccccc3)c2-c2ccccc2)cc1` [4d, 1-Adamantyl-3-benzyloxy-4,5-diphenylimidazolium bromide] as the compound, how does the melting point read?
Its melting point is 180 to 182 °C.

For `Cc1c(C)[n+](OCc2ccccc2)cn1OCc1ccccc1.[Br-]` [5a, 1,3-Dibenzyloxy-4,5-dimethylimidazolium bromide], which melting point is on record?
The melting point was 110 to 111 °C.

With `Cc1ccccc1COn1c[n+](OCc2ccccc2C)c(C)c1C.[Br-]` [5b, 1,3-Di-(2-methylbenzyloxy)-4,5-dimethylimidazolium bromide] as the compound, how does the melting point read?
Its melting point is 132 to 133 °C.

What about the IC50 (MCF-7 cells; Homo sapiens, MCF7, 48 h) of the same compound?
Its IC50 is 8300 ± 10 nM.

What about the IC50 (HL-60 cells; Homo sapiens, HL-60, 48 h) of the same compound?
The IC50 was 1540 ± 10 nM.

Which results are given for `Cc1ccc(COn2c[n+](OCc3ccc(C)cc3)c(C)c2C)cc1.[Br-]` [5c, 1,3-Di-(4-methylbenzyloxy)-4,5-dimethylimidazolium bromide]?
melting point: 111 to 113 °C; IC50 (MCF-7 cells; Homo sapiens, MCF7, 48 h): 24200 ± 460 nM; IC50 (HL-60 cells; Homo sapiens, HL-60, 48 h): 4880 ± 180 nM

With `Cc1cc(C)cc(COn2c[n+](OCc3cc(C)cc(C)c3)c(C)c2C)c1.[Br-]` [5d, 1,3-Di-(3,5-dimethylbenzyloxy)-4,5-dimethylimidazolium bromide] as the compound, how does the melting point read?
Its melting point is 141 to 143 °C.

And the IC50 (MCF-7 cells; Homo sapiens, MCF7, 48 h)?
The IC50 was 8570 ± 370 nM.

What about the IC50 (HL-60 cells; Homo sapiens, HL-60, 48 h) of the same compound?
The IC50 was 1460 ± 20 nM.

What does the source list for `Cc1ccccc1CO[n+]1cn(OCc2ccccc2)c(C)c1C` [5e, 1-Benzyloxy-3-(2-methylbenzyloxy)-4,5-dimethylimidazolium bromide]?
IC50 (MCF-7 cells; Homo sapiens, MCF7, 48 h): 11600 ± 250 nM; IC50 (HL-60 cells; Homo sapiens, HL-60, 48 h): 3160 ± 180 nM

For `Cc1ccc(CO[n+]2cn(OCc3ccccc3)c(C)c2C)cc1.[Br-]` [5f, 1-Benzyloxy-3-(4-methylbenzyloxy)-4,5-dimethylimidazolium bromide], which melting point is on record?
Its melting point is 124 to 126 °C.

And the IC50 (MCF-7 cells; Homo sapiens, MCF7, 48 h)?
The IC50 was 16600 ± 1060 nM.

What about the IC50 (HL-60 cells; Homo sapiens, HL-60, 48 h) of the same compound?
The IC50 was 2910 ± 80 nM.

For `c1ccc(CO[n+]2cn(Cc3ccccc3)c(-c3ccccc3)c2-c2ccccc2)cc1` [6a, 1-Benzyl-3-benzyloxy-4,5-diphenylimidazolium hexafluorophosphate], which IC50 (MCF-7 cells; Homo sapiens, MCF7, 48 h) is on record?
Its IC50 is 1290 ± 10 nM.

And the IC50 (HL-60 cells; Homo sapiens, HL-60, 48 h)?
Its IC50 is 640 ± 20 nM.

With `Cc1cc(C)cc(CO[n+]2cn(OC34CC5CC(CC(C5)C3)C4)c(C)c2C)c1` [6b, 1-Adamantyloxy-3-(3,5-dimethylbenzyloxy)-4,5-dimethylimidazolium hexafluorophosphate] as the compound, how does the IC50 (MCF-7 cells; Homo sapiens, MCF7, 48 h) read?
Its IC50 is 2520 ± 30 nM.

And the IC50 (HL-60 cells; Homo sapiens, HL-60, 48 h)?
Its IC50 is 370 ± 10 nM.

For `Cc1c(C)n(OCc2ccccc2)c(=S)n1Cc1ccccc1` [7a, 1-Benzyl-3-benzyloxy-4,5-dimethylimidazole-2-thione], which melting point is on record?
Its melting point is 116 to 117 °C.

For `Cc1c(C)n(OCc2ccccc2)c(=S)n1OCc1ccccc1` [7c, 1,3-Dibenzyloxy-4,5-dimethylimidazole-2-thione], which melting point is on record?
The melting point was 87 to 88 °C.

With `Cc1c(C)[n+](Cc2ccccc2)cn1Cc1ccccc1` [lepidiline A] as the compound, how does the “activity against FDIGROV cell line” value (FDIGROV cell line) read?
The value was “some activity”.

Which “activity against MDA231 cell line” value (MDA231 cell line) does the source give for `Cc1c(C)[n+](Cc2ccccc2)c(C)n1Cc1ccccc1` [lepidiline B] here?
Its value is “promising activity; also recorded: highly cytotoxic”.

What about the “activity against UMUC3 cell line” value (UMUC3 cell line) of the same compound?
Its value is “promising activity; also recorded: highly cytotoxic”.

And the “activity against FDIGROV cell line” value (FDIGROV cell line)?
Its value is “some activity; also recorded: highly cytotoxic”.

And the “activity against PACA2 cell line” value (PACA2 cell line)?
The value was “promising activity; also recorded: highly cytotoxic”.
